Key:
Assay type in all cases: biochemical
[1] = Dose–response curve of purified […]s with tyrosine
Experimental: (§1) Fig. 4 Engineering ligand specificity of GrsA-PheA for generating […]s. a The selectivity-conferring code of Phe and Leu A domains. b–f Dose–response curve of purified […]s with increasing concentrations of ligands in 100 mM Tris-HCl buffer (pH=7.5). All data shown are means ± S.D. (n = 3 biologically independent samples). g A series of […] reactions was tested to show the […]’s specificity with 20 proteinogenic amino acids. The values on the heatmap represent the ΔF/F0 value normalized to each […]’s maximal ΔF/F0 value ((ΔF/F0)/maximal ΔF/F0). The concentrations of 20 amino acids were 100 μM. The color indicates the average value of three independent biological replicates after 15 min. All data shown are means ± S.D. (n = 3 biologically independent samples). Source data are provided as a Source data file.
(§2) The study conducted dose–response curve, substrate specificity, and fluorescent spectrum analyses in 100-mM Tris buffer (pH = 7.5), while pH stability experiments were performed in 100-mM Tris buffer at three different pH values (6.5, 7.5, and 8.5) at room temperature. […] protein at a concentration of 0.75 μM, various small molecule concentrations, 1 mM ATP, and 2.5 mM MgCl2 were used in the experiments. Fluorescent signals were detected using a Microplate Reader (Synergy H4, Bio Tek) at an excitation/emission wavelength of 460 nm/510 nm or 480 nm/510 nm. The dose-response curve was determined immediately after the addition of the analyte. The total duration of the measurement was 15 min, with readings taken at one-minute intervals. The dose-response curve was plotted using the fluorescence values obtained after achieving stability in the fluorescence signal. The dose-response curves were fitted using the logistic model LOGISTIC5 available in Origin 2021, which could provide a more adequate fit to asymmetric dose-response data[62],[63]. Excitation spectra were scanned from 300 to 540 nm with a step size of 5 nm, and the emission wavelength was set to 560 nm. Emission spectra were scanned from 470 to 700 nm with a step size of 5 nm, and the excitation wavelength was set to 450 nm. The thermal stability of […] was analyzed using the UNcle multifunctional protein stability analysis system. Measurements were performed in 20 mM MOPS buffer with 2 mM DTT at a sample concentration of 1 mg/mL. Absolute fluorescence quantum yields were measured using an absolute photoluminescence quantum yield spectrometer (FS5, Edinburgh).

[2] = Substrate (ligand) specificity of […]s; conditions: for fluorescence response of GECFINDER to each substrate, AVE of 3 repeats: Supplementary Fig. 3 c, substrate specificity
Experimental: as §1
Ligand specificity is an important biosensors feature. Generally, the NRPS A domains have high specificity for their substrates because they are the first “gatekeeper” of NRPSs and ensure that the correct monomers are activated and thioesterified[32],[33]. Therefore, we speculated that this property would be inherited by our […]s because the ligand-binding pockets were unchanged during the […] creation process. Twenty proteinogenic amino acids were used to test the ligand specificity of […]s. […] We also investigated the dependence of […]s on Mg^2+ and ATP (Supplementary Fig. 4). […] This phenomenon corroborates with the distinct conformational changes observed in Hinge A of Nt4CL2 (Mg^2++ATP) (PDB ID: 5BSM) and Nt4CL2 (Coumaroyl-AMP) (PDB ID: 5BST) reported in the literature (Supplementary Fig. 4k), where the direction of motion in hinge A differs. […] During the determination of quantum yield, we observed that the absolute quantum yield of the […] variants ranged from 0.3 to 0.6 upon addition of the respective substrates, which show no significant difference with that reported in literature. The specific values are provided in Supplementary Table 2.
as §2

[3] = Dose–response curve of purified […]s with S-β-phenylalanine
Experimental: as §1, §2

## N[C@@H](Cc1ccc(O)cc1)C(=O)O [Tyr]
[1]; substrate Tyr 0.5 μM
  AVE, dose-response Fig. 4 b: 7.517e-17
[1]; substrate Tyr 1 μM
  AVE, dose-response Fig. 4 b: 0.02259
  AVE, dose-response Fig. 4 e: 0.04154
[1]; substrate Tyr 5 μM
  AVE, dose-response Fig. 4 b: 0.05606
[1]; substrate Tyr 10 μM
  AVE, dose-response Fig. 4 b: 0.0659
  AVE, dose-response Fig. 4 e: 0.1198
[1]; substrate Tyr 20 μM
  AVE, dose-response Fig. 4 b: 0.09543
  AVE, dose-response Fig. 4 e: 0.1707
[1]; substrate Tyr 50 μM
  AVE, dose-response Fig. 4 b: 0.2237
[1]; substrate Tyr 100 μM
  AVE, dose-response Fig. 4 b: 0.3812
  AVE, dose-response Fig. 4 e: 0.4124
[1]; substrate Tyr 200 μM
  AVE, dose-response Fig. 4 b: 0.5926
  AVE, dose-response Fig. 4 e: 0.5306
[1]; substrate Tyr 250 μM
  AVE, dose-response Fig. 4 b: 0.6977
[1]; substrate Tyr 500 μM
  AVE, dose-response Fig. 4 b: 1.046
  AVE, dose-response Fig. 4 e: 0.6788
[1]; substrate Tyr 750 μM
  AVE, dose-response Fig. 4 b: 1.209
[1]; substrate Tyr 1000 μM
  AVE, dose-response Fig. 4 b: 1.242
  AVE, dose-response Fig. 4 e: 0.7749
[1]; substrate Tyr 0.1 μM
  AVE, dose-response Fig. 4 e: 0
[1]; substrate Tyr 0.2 μM
  AVE, dose-response Fig. 4 e: 0.01578
[1]; substrate Tyr 2 μM
  AVE, dose-response Fig. 4 e: 0.05025
[1]; substrate Tyr 1500 μM
  AVE, dose-response Fig. 4 e: 0.7754
[1]; substrate Tyr 2000 μM
  AVE, dose-response Fig. 4 e: 0.7447
[2]; 1 mM ligand, Control AVE 12117.3
  AVE of Repeat 1-3, sensor signal with ligand (Supplementary Fig. 7 c): 11224.3
[2]
  fluorescence response of GECFINDER to each substrate, AVE of 3 repeats: -0.01776

## N[C@@H](CC(=O)O)c1ccccc1 [S-β-Phe]
[2]
  fluorescence response of GECFINDER to each substrate, AVE of 3 repeats: 2.126
[3]; substrate S-β-Phe 0.0001 μM
  AVE, dose-response Fig. 4 b: -0.0002792
  AVE, dose-response Fig. 4 f: -0.0001186
[3]; substrate S-β-Phe 0.001 μM
  AVE, dose-response Fig. 4 b: -0.0008239
  AVE, dose-response Fig. 4 f: -0.005617
[3]; substrate S-β-Phe 0.01 μM
  AVE, dose-response Fig. 4 b: -0.003663
  AVE, dose-response Fig. 4 f: 0.008482
[3]; substrate S-β-Phe 0.1 μM
  AVE, dose-response Fig. 4 b: -0.01739
  AVE, dose-response Fig. 4 f: 0.09012
[3]; substrate S-β-Phe 1 μM
  AVE, dose-response Fig. 4 b: 0.02113
  AVE, dose-response Fig. 4 f: 0.4944
[3]; substrate S-β-Phe 10 μM
  AVE, dose-response Fig. 4 b: 0.3498
  AVE, dose-response Fig. 4 f: 1.228
[3]; substrate S-β-Phe 50 μM
  AVE, dose-response Fig. 4 b: 0.6956
  AVE, dose-response Fig. 4 f: 1.751
[3]; substrate S-β-Phe 100 μM
  AVE, dose-response Fig. 4 b: 0.8621
  AVE, dose-response Fig. 4 f: 1.939
[3]; substrate S-β-Phe 500 μM
  AVE, dose-response Fig. 4 b: 0.9305
  AVE, dose-response Fig. 4 f: 2.2005
[3]; substrate S-β-Phe 1000 μM
  AVE, dose-response Fig. 4 b: 0.8832
  AVE, dose-response Fig. 4 f: 2.208
[3]; substrate S-β-Phe 5000 μM
  AVE, dose-response Fig. 4 b: 0.7695
  AVE, dose-response Fig. 4 f: 2.26
[3]; substrate S-β-Phe 10000 μM
  AVE, dose-response Fig. 4 b: 0.7514
  AVE, dose-response Fig. 4 f: 2.258

Reference: publication PMC10590383, “Repurposing conformational changes in ANL superfamily enzymes to rapidly generate biosensors for organic and amino acids” (Nature Communications, 2023)
